The source of these data is patent publication US20250381165A1, “Method of Use for Benzofuran Compounds” (Tampa Bay Research Institute, Inc., priority 2024, published 2025).

“Also recorded” adds a separate entry of the source.

Common to all, as to assay type: cell-based, murine
Experiment [1] deals with T1, MHC class I/SIINFEKL complex on IMG cells (Mus musculus, UniProt P01901).
T1 construct: host or cells: IMG cell line
The experiment can be described thus: SIINFEKL binding to IMG cells, flow cytometry with 25-D1.16 antibody. Conditions: 25 μg/mL BzFβ 0-4 h. As for the experimental part:
By using an MHC class I H-2K^b specific antibody, a relative comparison of the surface MHC class I was measured before and after BzFβ treatment of DC2.4 and IMG cells. These cells were treated with 25 μg/mL BzFβ for 0-4 h. Cells were centrifuged and washed using cold FACS buffer (DPBS with 5% FBS, 2 mM EDTA, 0.1% sodium azide). Cells were blocked with Fc block (bioLegend™; cat. no. 101320) for 10 min to 15 min to inhibit non-specific binding, followed by staining with fluorophore-conjugated antibodies; one set of cells was stained with the PE-labeled MHC/SIINFEKL specific antibody (clone 25-D1.16, Invitrogen™, Thermo Fisher Scientific Inc., Waltham, MA; cat. no. 12-5743-82), and the other set was stained with the PE-labeled MHC class I H-2Kb specific antibody (AF6-88.5.5.3,Invitrogen™, Thermo Fisher Scientific Inc., Waltham, MA; cat. no. 12-5958-82) […], for 30 min at 4° C. After washing, the cells were subjected to flow cytometric analysis with the Attune NxT Flow Cytometer (Invitrogen). Cells were gated based on live single-cell populations and positives were assessed using isotype controls and fluor-minus-one analysis when needed. Data were analyzed using the Attune NxT software or FlowJo versions 10.7 and 10.8.
In general terms: A flow cytometer gives signals particle by particle.

In a further experiment the target is T2, H-2Kb on DC2.4 (Mus musculus, UniProt P01901).
T2 construct: DC2.4 are a C57Bl/6 lineage murine cell line and as such they express MHC class I H-2Kb and H-2Db; endogenous in cells; host or cells: DC2.4
The experiment can be described thus: FITC-labeled Trp2 peptide binding to DC2.4. Conditions: 50 μg/mL BzFβ 1 h, 1 h pulse 0-1000 nM peptide. The protocol: Cells were cultured as previously described and treated for various times as indicated in results and figure legends. Cells were centrifuged and washed using cold FACS buffer (DPBS with 5% FBS, 2 mM EDTA, 0.1% sodium azide). Cells were stained with N-terminal fluorophore-conjugated […] FITC labeled Trp2180-188 peptide ([…]) and N-terminal FITC labeled H-2Db peptide […] (Anaspec) cells were incubated with Fc block (bioLegend™; cat. no. 101320) for 10 min to 15 min to inhibit non-specific binding, followed by peptide for 1-4 h, before washing and analysis. After washing, the cells were subjected to flow cytometric analysis with the Attune NxT Flow Cytometer (Invitrogen™). Cells were gated based on live single-cell populations and positives were assessed using isotype controls and fluor-minus-one analysis when needed. Data were analyzed using the Attune NxT software or FlowJo versions 10.7 and 10.8.
While H-2Kb is the dominant haplotype, BzFβ was investigated to determine if the compound could assist peptide binding on H-2Kb and H-2Db. […]

The subject of another experiment is RAW 264.7. As to the kind of experiment: CellTiter-Glo cell viability, RAW 264.7. Conditions: Mus musculus, RAW264.7. As for the experimental part: BzFβ was then examined for its effect on the viability of several murine and human cell lines and primary murine splenocytes. The cytotoxicity of BzFβ was assessed using the CellTiter-Glo […] assay system according to manufacturer's instructions to determine BzFβ's effect on the viability of several murine and human cell lines and primary murine splenocytes.
DC2.4 cell line (Dr. Kenneth Rock, University of Massachusetts), RAW 264.7 cell line (American Type Culture Collection (ATCC), Manassas, VA; TIB 71), and IMG cell line (Millipore™, Merck KGaA, Burlington, MA; cat. no. SC-C134) were each cultured in complete Dulbecco's Modified Eagle Medium (cDMEM) containing […] glucose (Gibco™, Thermo Fisher Scientific Inc., Waltham, MA; cat. no. 10566-016) and supplemented with GlutaMAX, 50 U/mL penicillin and 50 µg/mL streptomycin (Gibco™; cat. no. 15070-063) and 10% heat inactivated fetal bovine serum (FBS) (R&D Systems, Inc., Minneapolis, MN; cat. no. […]
The cytotoxicity of BzFβ was assessed using the CellTiter-Glo cell […] viability assay system […] cat. no. […] CellTiter-Glo was added 1:1 in the media and the level of chemiluminescence was measured using luminescence at wavelengths of 200 nm to 700 nm through a photomultiplier on BioTek's Synergy HTX multimode microplate reader. […]
For orientation: ATP-based viability assays read luminescence as a measure of living cells.

Usually IC50 stands for the concentration needed to halve the response being measured.

T2 sequence (P01901 22-369): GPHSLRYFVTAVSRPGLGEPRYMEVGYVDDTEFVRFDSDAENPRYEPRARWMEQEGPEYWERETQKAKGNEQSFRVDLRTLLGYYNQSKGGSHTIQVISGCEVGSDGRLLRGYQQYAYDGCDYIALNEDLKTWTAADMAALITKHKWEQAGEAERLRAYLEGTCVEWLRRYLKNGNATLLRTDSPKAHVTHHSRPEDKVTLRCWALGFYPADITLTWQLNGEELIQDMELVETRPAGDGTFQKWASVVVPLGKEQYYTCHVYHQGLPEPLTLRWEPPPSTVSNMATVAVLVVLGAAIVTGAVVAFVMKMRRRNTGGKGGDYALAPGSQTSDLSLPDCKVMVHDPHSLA
T2 sequence (P01887 21-119 partner): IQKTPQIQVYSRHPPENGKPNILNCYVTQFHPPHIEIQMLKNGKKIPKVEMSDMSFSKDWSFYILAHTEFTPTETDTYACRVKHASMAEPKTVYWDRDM
T1 sequence (P01901 22-369): as the sequence (P01901 22-369) above
T1 sequence (P01887 21-119 partner): as the sequence (P01887 21-119 partner) above

`O=C(O)/C=C/c1ccc2occc2c1` [BzFβ, (2E)-3-(1-benzofuran-5-yl)prop-2-enoic acid]: in experiment [1], the “binding of SIINFEKL to surface MHC class I” value is recorded as “able to enhance the binding of SIINFEKL”. Further, at H-2Kb on DC2.4, the “binding of FITC labeled Trp2 peptide to H-2Kb” value is “enhance peptide binding on both haplotypes; also recorded: enhancement of the direct binding”. Besides, the IC50 in the experiment with RAW 264.7 was determined as 783 µM.
